Test results: patent US9326985B2, “Heteroaryl pyridone and aza-pyridone amide compounds” (Genentech, Inc., priority 2013, dated 2016)

Experiments:
[1] = tested on: CD69 by B lymphocytes in human whole blood activated with goat F(ab')2 anti-human IgM; assay: CD69 Whole Blood Assay (CD69 Hu Blood FACS); type: cell-based; details: Lymphocyte, CD69 positive of CD20 positive cells
Procedure: CD69 is a type II C-type lectin involved in lymphocyte migration and cytokine secretion.
Human blood is obtained from healthy volunteers, with the following restrictions: 1 week drug-free, non-smokers. Blood (approximately 20 mls to test 8 compounds) is collected by venipuncture into Vacutainer® (Becton, Dickinson and Co.) tubes with sodium heparin.
Solutions of Formula I compounds at 10 mM in DMSO are diluted 1:10 in 100% DMSO, then are diluted by three-fold serial dilutions in 100% DMSO for a ten point dose-response curve. The compounds are further diluted 1:10 in PBS and then an aliquot of 5.5 μl of each compound is added in duplicate to a 2 ml 96-well plate; 5.5 μl of 10% DMSO in PBS is added as control and no-stimulus wells. Human whole blood—HWB (100 μl) is added to each well. After mixing the plates are incubated at 37° C., 5% CO2, 100% humidity for 30 minutes. Goat F(ab′)2 anti-human IgM (10 μl of a 500 μg/ml solution, 50 μg/ml final) is added to each well (except the no-stimulus wells) with mixing and the plates are incubated for an additional 20 hours. At the end of the 20 hour incubation, samples are incubated with fluorescent labeled antibodies for 30 minutes, at 37° C., 5% CO2, 100% humidity. Include induced control, unstained and single stains for compensation adjustments and initial voltage settings. Samples are then lysed with PharM Lyse™ (BD Biosciences Pharmingen) according to the manufacturer's instructions. Samples are then transferred to a 96 well plate suitable to be run on the BD Biosciences HTS 96 well system on the LSRII machine. Data acquired and Mean Fluorescence Intensity values were obtained using BD Biosciences DIVA Software. Results are initially analyzed by FACS analysis software (Flow Jo).

[2] = target: T1, full length human wildtype Btk (Homo sapiens, UniProt Q06187); assay: Biochemical Btk Assay (BTK LC3K)
T1 construct: V5 (C); 6xHis (C); made in house; host or cells: Sf9 insect cells (baculovirus, pFastBac)
T1 sequence (Q06187 whole entry): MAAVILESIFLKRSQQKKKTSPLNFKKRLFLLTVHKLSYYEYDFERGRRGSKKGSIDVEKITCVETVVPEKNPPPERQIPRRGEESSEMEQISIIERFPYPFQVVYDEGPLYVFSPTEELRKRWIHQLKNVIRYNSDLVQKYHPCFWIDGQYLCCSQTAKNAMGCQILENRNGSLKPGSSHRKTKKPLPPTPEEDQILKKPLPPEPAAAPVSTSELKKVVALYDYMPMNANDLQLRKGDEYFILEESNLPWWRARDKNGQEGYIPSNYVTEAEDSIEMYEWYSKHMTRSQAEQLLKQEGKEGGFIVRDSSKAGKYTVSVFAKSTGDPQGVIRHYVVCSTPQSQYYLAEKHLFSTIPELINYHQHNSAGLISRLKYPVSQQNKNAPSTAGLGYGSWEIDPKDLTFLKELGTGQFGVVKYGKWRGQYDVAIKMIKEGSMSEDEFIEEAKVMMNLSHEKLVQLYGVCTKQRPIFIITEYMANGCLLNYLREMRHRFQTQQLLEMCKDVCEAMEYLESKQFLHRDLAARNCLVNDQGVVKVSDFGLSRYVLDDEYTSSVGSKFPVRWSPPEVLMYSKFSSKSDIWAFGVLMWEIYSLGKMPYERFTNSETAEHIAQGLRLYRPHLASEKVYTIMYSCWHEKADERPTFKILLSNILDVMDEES
Procedure: A generalized procedure for a standard biochemical Btk, Kinase Assay that can be used to test Formula I compounds is as follows. A master mix minus Btk enzyme is prepared containing 1× Cell Signaling kinase buffer (25 mM Tris-HCl, pH 7.5, 5 mM beta-glycerophosphate, 2 mM dithiothreitol, 0.1 mM Na3VO4, 10 mM MgCl2), 0.5 μM Promega PTK Biotinylated peptide substrate 2, and 0.01% BSA. A master mix plus Btk enzyme is prepared containing 1× Cell Signaling kinase buffer, 0.5 μM (micromolar) PTK Biotinylated peptide substrate 2, 0.01% BSA, and 100 ng/well (0.06 mU/well) Btk enzyme. Btk enzyme is prepared as follows: full length human wildtype Btk (accession number NM-000061) with a C-terminal V5 and 6×His tag was subcloned into pFastBac® vector (Invitrogen/Life Technologies) for making baculovirus carrying this epitope-tagged Btk. […] Passage 3 virus is used to infect Sf9 cells to overexpress the recombinant Btk protein. The Btk protein is then purified to homogeneity using Ni-NTA column. […] A solution of 200 μM ATP is prepared in water and adjusted to pH 7.4 with 1N NaOH. A quantity of 1.25 μL (microliter) of compounds in 5% DMSO is transferred to a 96-well ½ area Costar polystyrene plate. Compounds are tested singly and with an 11-point dose-responsive curve (starting concentration is 10 μM; 1:2 dilution). A quantity of 18.75 μL of master mix minus enzyme (as a negative control) and master mix plus enzyme is transferred to appropriate wells in 96-well ½ area costar polystyrene plate. 5 μL of 200 μM ATP is added to that mixture in the 96-well ½ area Costar polystyrene plate for final ATP concentration of 40 μM. The reaction is allowed to incubate for 1 hour at room temperature. The reaction is stopped with Perkin Elmer 1× detection buffer containing 30 mM EDTA, 20 nM SA-APC, and 1 nM PT66 Ab. […] IC50 values are subsequently calculated. Alternatively, the Lanthascreen assay can be used to evaluate Btk activity through quantification of its phosphorylated peptide product. The FRET (Fluorescence Resonance Energy Transfer) that occurs between the fluorescein on the peptide product and the terbium on the detection antibody decreases with the addition of inhibitors of Btk that reduce the phosphorylation of the peptide. In a final reaction volume of 25 uL, Btk (h) (0.1 ng/25 ul reaction) is incubated with 50 mM Hepes pH 7.5, 10 mM MgCl2, 2 mM MnCl2, 2 mM DTT, 0.2 mM NaVO4, 0.01% BSA, and 0.4 uM fluorescein poly-GAT. […] After incubation for 60 minutes at room temperature, the reaction is stopped by the addition of a final concentration of 2 nM Tb-PY20 detection antibody in 60 mM EDTA for 30 minutes at room temperature.

CN1CCC2(CC1)C[C@@H]2C(=O)Nc1cc(-c2ccnc(-n3ncc4cc(C(C)(C)C)cc(F)c4c3=O)c2CO)cn(C)c1=O (single isomer, unassigned) [Compound 166]
IC50 ([1]; Table 2, anti-IgM stimulation): 1600 nM
Ki ([2]; Table 2): 5.4 nM

Cn1cc(-c2cccc(N3CCc4c(cc5n4CCCC5)C3=O)c2CO)cc(NC(=O)C2CC2)c1=O [Compound 139, N-[5-[2-(hydroxymethyl)-3-(1-oxo-3,4,6,7,8,9-hexahydropyrido[3,4-b]indolizin-2-yl)phenyl]-1-methyl-2-oxo-3-pyridyl]cyclopropanecarboxamide]
IC50 ([1]; Table 2, anti-IgM stimulation): 689 nM
Ki ([2]; Table 2): 7.8 nM

Cn1cc(-c2ccnc(N3CCn4c(cc5c4CC(C)(C)C5)C3=O)c2CO)cc(NC(=O)c2cnco2)c1=O [Compound 115, N-[5-[2-(7,7-dimethyl-4-oxo-1,2,6,8-tetrahydrocyclopenta[3,4]pyrrolo[3,5-b]pyrazin-3-yl)-3-(hydroxymethyl)-4-pyridyl]-1-methyl-2-oxo-3-pyridyl]oxazole-5-carboxamide]
IC50 ([1]; Table 1, anti-IgM stimulation): > 3200 nM
Ki ([2]; Table 1): > 500 nM

C[C@@H]1C[C@H]1C(=O)Nc1cc(-c2ccnc(N3CCn4c(cc5c4CC(C)(C)C5)C3=O)c2CO)cn(C)c1=O [Compound 138, (1R,2R)—N-[5-[2-(7,7-dimethyl-4-oxo-1,2,6,8-tetrahydrocyclopenta[3,4]pyrrolo[3,5-b]pyrazin-3-yl)-3-(hydroxymethyl)-4-pyridyl]-1-methyl-2-oxo-3-pyridyl]-2-methyl-cyclopropanecarboxamide]
IC50 ([1]; Table 2, anti-IgM stimulation): 2600 nM
Ki ([2]; Table 2): 43.8 nM

Cn1cc(-c2ccnc(-n3ncc4cc(C(C)(C)C)cc(F)c4c3=O)c2CO)cc(NC(=O)[C@@H]2CC23CC3)c1=O (single isomer, unassigned) [Compound 161]
IC50 ([1]; Table 2, anti-IgM stimulation): 338 nM
Ki ([2]; Table 2): 3.7 nM

Cc1cc(C(=O)Nc2cc(-c3ccnc(N4CCn5c(cc6c5CC(C)(C)C6)C4=O)c3CO)cn(C)c2=O)n[nH]1 [Compound 111, N-[5-[2-(7,7-dimethyl-4-oxo-1,2,6,8-tetrahydrocyclopenta[3,4]pyrrolo[3,5-b]pyrazin-3-yl)-3-(hydroxymethyl)-4-pyridyl]-1-methyl-2-oxo-3-pyridyl]-5-methyl-1H-pyrazole-3-carboxamide]
IC50 ([1]; Table 1, anti-IgM stimulation): > 5400 nM
Ki ([2]; Table 1): > 500 nM

Cn1cc(-c2cccc(N3CCc4c(cc5n4CC(C)(C)C5)C3=O)c2CO)cc(NC(=O)C2CC2)c1=O [Compound 142, N-[5-[3-(7,7-dimethyl-4-oxo-1,2,6,8-tetrahydropyrido[3,4-b]pyrrolizin-3-yl)-2-(hydroxymethyl)phenyl]-1-methyl-2-oxo-3-pyridyl]cyclopropanecarboxamide]
IC50 ([1]; Table 2, anti-IgM stimulation): 70 nM
Ki ([2]; Table 2): 1.8 nM

Cn1cc(-c2ccnc(-n3ncc4cc(C(C)(C)C)cc(F)c4c3=O)c2CO)cc(NC(=O)[C@H]2CC23CC3)c1=O (single isomer, unassigned) [Compound 162]
IC50 ([1]; Table 2, anti-IgM stimulation): 786 nM
Ki ([2]; Table 2): 5 nM

Cc1cc(C(=O)Nc2cc(-c3ccnc(N4CCn5c(cc6c5CC(C)(C)C6)C4=O)c3CO)cn(C)c2=O)nn1C [Compound 112, N-[5-[2-(7,7-dimethyl-4-oxo-1,2,6,8-tetrahydrocyclopenta[3,4]pyrrolo[3,5-b]pyrazin-3-yl)-3-(hydroxymethyl)-4-pyridyl]-1-methyl-2-oxo-3-pyridyl]-1,5-dimethyl-pyrazole-3-carboxamide]
IC50 ([1]; Table 1, anti-IgM stimulation): > 5800 nM
Ki ([2]; Table 1): > 500 nM

Cn1cc(-c2cc(F)cc(N3CCn4c(cc5c4CC(C)(C)C5)C3=O)c2CO)cc(NC(=O)C2CC2)c1=O [Compound 130, N-[5-[3-(7,7-dimethyl-4-oxo-1,2,6,8-tetrahydrocyclopenta[3,4]pyrrolo[3,5-b]pyrazin-3-yl)-5-fluoro-2-(hydroxymethyl)phenyl]-1-methyl-2-oxo-3-pyridyl]cyclopropanecarboxamide]
IC50 ([1]; Table 2, anti-IgM stimulation): 35 nM
Ki ([2]; Table 2): 1.29 nM

Cn1cc(-c2ccnc(-c3nc4ccc(C(C)(C)C)cc4n3C)c2CO)cc(NC(=O)C2CC2)c1=O [Compound 160, N-[5-[2-(6-tert-butyl-1-methyl-benzimidazol-2-yl)-3-(hydroxymethyl)-4-pyridyl]-1-methyl-2-oxo-3-pyridyl]cyclopropanecarboxamide]
IC50 ([1]; Table 2, anti-IgM stimulation): > 3500 nM
Ki ([2]; Table 2): 25.7 nM

Cn1cc(-c2ccnc(N3CCn4c(cc5c4CC(C)(C)C5)C3=O)c2CO)cc(NC(=O)[C@@H]2CC23CCC3)c1=O (single isomer, unassigned) [Compound 146]
IC50 ([1]; Table 2, anti-IgM stimulation): 5200 nM
Ki ([2]; Table 2): 17 nM

Cn1cc(-c2cc(F)cc(N3CCn4c(cc5c4CC(C)(C)C5)C3=O)c2CO)cc(NC(=O)[C@@H]2C[C@@H]2F)c1=O [Compound 172, (1S,2S)—N-[5-[3-(7,7-dimethyl-4-oxo-1,2,6,8-tetrahydrocyclopenta[3,4]pyrrole[3,5-b]pyrazin-3-yl)-5-fluoro-2-(hydroxymethyl)phenyl]-1-methyl-2-oxo-3-pyridyl]-2-fluoro-cyclopropanecarboxamide]
IC50 ([1]; Table 2, anti-IgM stimulation): 17 nM
Ki ([2]; Table 2): 0.8 nM

Cn1cc(-c2ccnc(N3CCc4c(sc5c4CC(C)(C)C5)C3=O)c2CO)cc(NC(=O)C2CC2)c1=O [Compound 131, N-[5-[2-(7,7-dimethyl-4-oxo-1,2,6,8-tetrahydrocyclopenta[3,4]thieno[1,3-c]pyridin-3-yl)-3-(hydroxymethyl)-4-pyridyl]-1-methyl-2-oxo-3-pyridyl]cyclopropanecarboxamide]
IC50 ([1]; Table 2, anti-IgM stimulation): 240 nM
Ki ([2]; Table 2): 7.06 nM

CN1CCC2(CC1)C[C@H]2C(=O)Nc1cc(-c2ccnc(-n3ncc4cc(C(C)(C)C)cc(F)c4c3=O)c2CO)cn(C)c1=O (single isomer, unassigned) [Compound 165]
IC50 ([1]; Table 2, anti-IgM stimulation): > 4800 nM
Ki ([2]; Table 2): 40.8 nM

Cn1cc(-c2ccnc(N3CCn4c(cc5c4CC(C)(C)C5)C3=O)c2CO)cc(NC(=O)c2ccc(N3CCCC3)nc2)c1=O [Compound 113, N-[5-[2-(7,7-dimethyl-4-oxo-1,2,6,8-tetrahydrocyclopenta[3,4]pyrrolo[3,5-b]pyrazin-3-yl)-3-(hydroxymethyl)-4-pyridyl]-1-methyl-2-oxo-3-pyridyl]-6-pyrrolidin-1-yl-pyridine-3-carboxamide]
IC50 ([1]; Table 1, anti-IgM stimulation): > 3500 nM
Ki ([2]; Table 1): 77 nM

Cn1cc(-c2ccnc(N3CCn4c(cc5c4CC(C)(C)C5)C3=O)c2CO)cc(NC(=O)c2ccccc2)c1=O [Compound 114, N-[5-[2-(7,7-dimethyl-4-oxo-1,2,6,8-tetrahydrocyclopenta[3,4]pyrrolo[3,5-b]pyrazin-3-yl)-3-(hydroxymethyl)-4-pyridyl]-1-methyl-2-oxo-3-pyridyl]benzamide]
IC50 ([1]; Table 1, anti-IgM stimulation): > 5400 nM
Ki ([2]; Table 1): 236 nM

Cn1cc(-c2cc(F)cc(N3CCc4c(cc5n4CC(C)(C)C5)C3=O)c2CO)cc(NC(=O)[C@@H]2C[C@@H]2F)c1=O [Compound 168]
IC50 ([1]; Table 2, anti-IgM stimulation): 157 nM
Ki ([2]; Table 2): 1 nM

CC(=O)Nc1cc(-c2ccnc(-n3ncc4cc(C(C)(C)C)cc(F)c4c3=O)c2CO)cn(C)c1=O [Compound 127, N-[5-[2-(6-tert-butyl-8-fluoro-1-oxo-phthalazin-2-yl)-3-(hydroxymethyl)-4-pyridyl]-1-methyl-2-oxo-3-pyridyl]acetamide]
IC50 ([1]; Table 1, anti-IgM stimulation): 335 nM
Ki ([2]; Table 1): 10.8 nM
